Test results from PubChem BioAssay (NCI).
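The concentration for 50% growth inhibition is given as GI50. Definition used: TGI = concentration required for complete inhibition of growth.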

Experiments:
Test in all cases: NCI-60 cell line screen, 384-well format; in the data active = GI50 below about 0.43 µM; inactive = the rest
IGROV1 ovarian = test system: IGROV1 ovarian
BT-549 breast = test system: BT-549 breast
MOLT-4 leukemia = test system: MOLT-4 leukemia
SK-MEL-28 melanoma = test system: SK-MEL-28 melanoma
ACHN renal = test system: ACHN renal
CAKI-1 renal = test system: CAKI-1 renal
DU-145 prostate = test system: DU-145 prostate
SNB-19 CNS = test system: SNB-19 CNS
MDA-MB-435 melanoma = test system: MDA-MB-435 melanoma
UACC-257 melanoma = test system: UACC-257 melanoma
HS 578T breast = test system: HS 578T breast
SNB-75 CNS = test system: SNB-75 CNS
OVCAR-3 ovarian = test system: OVCAR-3 ovarian
UACC-62 melanoma = test system: UACC-62 melanoma
HCT-15 colon = test system: HCT-15 colon
M14 melanoma = test system: M14 melanoma
MCF7 breast = test system: MCF7 breast
SN12C renal = test system: SN12C renal
SK-OV-3 ovarian = test system: SK-OV-3 ovarian
786-0 renal = test system: 786-0 renal
SK-MEL-2 melanoma = test system: SK-MEL-2 melanoma
KM12 colon = test system: KM12 colon
HOP-92 NSCLC = test system: HOP-92 NSCLC
HT29 colon = test system: HT29 colon
OVCAR-8 ovarian = test system: OVCAR-8 ovarian
HOP-62 NSCLC = test system: HOP-62 NSCLC
HL-60(TB) leukemia = test system: HL-60(TB) leukemia
SR leukemia = test system: SR leukemia
T-47D breast = test system: T-47D breast
NCI-H322M lung = test system: NCI-H322M lung
RXF 393 renal = test system: RXF 393 renal
NCI-H522 lung = test system: NCI-H522 lung
LOX IMVI melanoma = test system: LOX IMVI melanoma
PC-3 prostate = test system: PC-3 prostate
UO-31 renal = test system: UO-31 renal
SF-295 CNS = test system: SF-295 CNS
OVCAR-4 ovarian = test system: OVCAR-4 ovarian
NCI-H23 lung = test system: NCI-H23 lung
MDA-MB-231 breast = test system: MDA-MB-231 breast
TK-10 renal = test system: TK-10 renal
SK-MEL-5 melanoma = test system: SK-MEL-5 melanoma
OVCAR-5 ovarian = test system: OVCAR-5 ovarian
A549 NSCLC = test system: A549 NSCLC
NCI-H460 NSCLC = test system: NCI-H460 NSCLC
SF-539 CNS = test system: SF-539 CNS
HCT-116 colon = test system: HCT-116 colon
MDA-MB-468 breast = test system: MDA-MB-468 breast

O=C(Nc1cnn2ccc(N3CCC[C@@H]3c3cc(F)ccc3F)nc12)N1CC[C@H](O)C1
> 100 µM: TGI (IGROV1 ovarian) | TGI (BT-549 breast) | TGI (MOLT-4 leukemia) | TGI (SK-MEL-28 melanoma) | TGI (ACHN renal) | TGI (CAKI-1 renal) | TGI (DU-145 prostate) | TGI (SNB-19 CNS) | TGI (MDA-MB-435 melanoma) | TGI (UACC-257 melanoma) | TGI (HS 578T breast) | TGI (SNB-75 CNS) | TGI (OVCAR-3 ovarian) | TGI (UACC-62 melanoma) | TGI (HCT-15 colon) | TGI (M14 melanoma) | TGI (MCF7 breast) | TGI (SN12C renal) | TGI (SK-OV-3 ovarian) | TGI (786-0 renal) | TGI (SK-MEL-2 melanoma) | TGI (KM12 colon) | TGI (HOP-92 NSCLC) | TGI (HT29 colon) | TGI (OVCAR-8 ovarian) | TGI (HOP-62 NSCLC) | TGI (HL-60(TB) leukemia) | TGI (SR leukemia) | TGI (T-47D breast) | TGI (NCI-H322M lung) | TGI (RXF 393 renal) | TGI (NCI-H522 lung) | TGI (LOX IMVI melanoma) | TGI (PC-3 prostate) | TGI (UO-31 renal) | TGI (SF-295 CNS) | TGI (OVCAR-4 ovarian) | TGI (NCI-H23 lung) | TGI (MDA-MB-231 breast) | TGI (TK-10 renal) | TGI (SK-MEL-5 melanoma) | TGI (OVCAR-5 ovarian) | TGI (A549 NSCLC) | TGI (NCI-H460 NSCLC) | TGI (SF-539 CNS) | TGI (HCT-116 colon) | TGI (MDA-MB-468 breast)
inactive: GI50 (IGROV1 ovarian) > 100 µM | GI50 (BT-549 breast) > 100 µM | GI50 (MOLT-4 leukemia) 77.1 µM | GI50 (SK-MEL-28 melanoma) > 100 µM | GI50 (ACHN renal) > 100 µM | GI50 (CAKI-1 renal) > 100 µM | GI50 (DU-145 prostate) > 100 µM | GI50 (SNB-19 CNS) > 100 µM | GI50 (MDA-MB-435 melanoma) > 100 µM | GI50 (UACC-257 melanoma) > 100 µM | GI50 (HS 578T breast) > 100 µM | GI50 (SNB-75 CNS) > 100 µM | GI50 (OVCAR-3 ovarian) > 100 µM | GI50 (UACC-62 melanoma) > 100 µM | GI50 (HCT-15 colon) > 100 µM | GI50 (M14 melanoma) > 100 µM | GI50 (MCF7 breast) > 100 µM | GI50 (SN12C renal) > 100 µM | GI50 (SK-OV-3 ovarian) > 100 µM | GI50 (786-0 renal) > 100 µM | GI50 (SK-MEL-2 melanoma) > 100 µM | GI50 (HOP-92 NSCLC) > 100 µM | GI50 (HT29 colon) > 100 µM | GI50 (OVCAR-8 ovarian) > 100 µM | GI50 (HOP-62 NSCLC) > 100 µM | GI50 (HL-60(TB) leukemia) > 100 µM | GI50 (SR leukemia) > 78.9 µM | GI50 (T-47D breast) > 100 µM | GI50 (NCI-H322M lung) > 100 µM | GI50 (RXF 393 renal) > 100 µM | GI50 (NCI-H522 lung) > 100 µM | GI50 (LOX IMVI melanoma) > 100 µM | GI50 (PC-3 prostate) > 100 µM | GI50 (UO-31 renal) > 100 µM | GI50 (SF-295 CNS) > 100 µM | GI50 (OVCAR-4 ovarian) > 100 µM | GI50 (NCI-H23 lung) > 100 µM | GI50 (MDA-MB-231 breast) > 100 µM | GI50 (TK-10 renal) > 100 µM | GI50 (SK-MEL-5 melanoma) > 100 µM | GI50 (OVCAR-5 ovarian) > 100 µM | GI50 (A549 NSCLC) > 100 µM | GI50 (NCI-H460 NSCLC) > 100 µM | GI50 (SF-539 CNS) > 100 µM | GI50 (HCT-116 colon) > 100 µM | GI50 (MDA-MB-468 breast) > 100 µM
active: GI50 (KM12 colon) 0.0181 µM

COc1ncc(-c2nc3c(n2C(C)C)[C@H](c2ccc(Cl)cc2)N(c2cc(Cl)cn(C)c2=O)C3=O)c(OC)n1
45.5 µM: TGI (NCI-H460 NSCLC)
> 89.3 µM: TGI (RXF 393 renal)
> 100 µM: TGI (IGROV1 ovarian) | TGI (BT-549 breast) | TGI (SK-MEL-28 melanoma) | TGI (DU-145 prostate) | TGI (SNB-19 CNS) | TGI (MDA-MB-435 melanoma) | TGI (HS 578T breast) | TGI (SNB-75 CNS) | TGI (HCT-15 colon) | TGI (M14 melanoma) | TGI (MCF7 breast) | TGI (SN12C renal) | TGI (SK-OV-3 ovarian) | TGI (786-0 renal) | TGI (SK-MEL-2 melanoma) | TGI (KM12 colon) | TGI (HT29 colon) | TGI (OVCAR-8 ovarian) | TGI (HOP-62 NSCLC) | TGI (NCI-H322M lung) | TGI (NCI-H522 lung) | TGI (LOX IMVI melanoma) | TGI (PC-3 prostate) | TGI (SF-295 CNS) | TGI (OVCAR-4 ovarian) | TGI (NCI-H23 lung) | TGI (MDA-MB-231 breast) | TGI (TK-10 renal) | TGI (OVCAR-5 ovarian) | TGI (SF-539 CNS) | TGI (HCT-116 colon)
> 64.1 µM: TGI (CAKI-1 renal)
90 µM: TGI (OVCAR-3 ovarian)
inactive: GI50 (IGROV1 ovarian) 24.9 µM | GI50 (BT-549 breast) 36.2 µM | GI50 (MOLT-4 leukemia) 2.06 µM | GI50 (SK-MEL-28 melanoma) > 62.3 µM | GI50 (ACHN renal) 13.1 µM | GI50 (CAKI-1 renal) 6.27 µM | GI50 (DU-145 prostate) 64.4 µM | GI50 (SNB-19 CNS) > 94.8 µM | GI50 (MDA-MB-435 melanoma) 60.3 µM | GI50 (UACC-257 melanoma) 17.5 µM | GI50 (HS 578T breast) 33.3 µM | GI50 (SNB-75 CNS) > 52.2 µM | GI50 (OVCAR-3 ovarian) 33.3 µM | GI50 (UACC-62 melanoma) 5.25 µM | GI50 (HCT-15 colon) 36 µM | GI50 (M14 melanoma) 48.5 µM | GI50 (MCF7 breast) 24.7 µM | GI50 (SN12C renal) > 93.2 µM | GI50 (SK-OV-3 ovarian) > 76 µM | GI50 (786-0 renal) 62.7 µM | GI50 (SK-MEL-2 melanoma) > 100 µM | GI50 (KM12 colon) 49.8 µM | GI50 (HOP-92 NSCLC) 24.8 µM | GI50 (HT29 colon) 51.5 µM | GI50 (OVCAR-8 ovarian) 66.1 µM | GI50 (HOP-62 NSCLC) > 51 µM | GI50 (HL-60(TB) leukemia) 16.7 µM | GI50 (SR leukemia) 1.96 µM | GI50 (T-47D breast) 34.3 µM | GI50 (NCI-H322M lung) > 96 µM | GI50 (RXF 393 renal) 35.5 µM | GI50 (NCI-H522 lung) 48.4 µM | GI50 (LOX IMVI melanoma) 18.9 µM | GI50 (PC-3 prostate) 39.7 µM | GI50 (UO-31 renal) 12.4 µM | GI50 (SF-295 CNS) 63.6 µM | GI50 (OVCAR-4 ovarian) 28.9 µM | GI50 (NCI-H23 lung) 60.6 µM | GI50 (MDA-MB-231 breast) 44.6 µM | GI50 (TK-10 renal) > 68.4 µM | GI50 (SK-MEL-5 melanoma) 12.7 µM | GI50 (OVCAR-5 ovarian) > 100 µM | GI50 (A549 NSCLC) 16.6 µM | GI50 (NCI-H460 NSCLC) 14.2 µM | GI50 (SF-539 CNS) > 73 µM | GI50 (HCT-116 colon) 18.2 µM | GI50 (MDA-MB-468 breast) 17.3 µM
22.7 µM: TGI (UACC-62 melanoma)
37.3 µM: TGI (UACC-257 melanoma)
29.6 µM: TGI (SK-MEL-5 melanoma)
10.9 µM: TGI (SR leukemia)
58.7 µM: TGI (A549 NSCLC)
47.8 µM: TGI (ACHN renal)
31.1 µM: TGI (HL-60(TB) leukemia)
28.2 µM: TGI (UO-31 renal)
39.6 µM: TGI (MDA-MB-468 breast)
5.15 µM: TGI (MOLT-4 leukemia)
> 91.8 µM: TGI (T-47D breast)
> 92.2 µM: TGI (HOP-92 NSCLC)
